# Measured values from patent US20080108568A1, “COMPOUNDS FOR IMPROVING LEARNING AND MEMORY” (TGEN, priority 2006, published 2008).
# Entries after “also recorded” stand apart in the source; their conditions may differ.
# Legend:
# aged rats = test: Morris water maze (reference memory); format: in vivo, rat
# Protocol: The rats were also tested using the Morris water maze. The Morris water maze consists of a circular water bath with a single platform. The bath is divided into 4 quadrants and various annuli. A rat was placed in the water bath and the time and distance that the rat required to reach the platform was measured. The solving strategy used by the rat was also noted. The movement of the rat was tracked using a digital tracking system. Each rat underwent 4 trials per day, with entry into the maze varied by quadrant for each trial. The Morris water maze included 5 days of testing, with the first 4 days involving testing and day 5 involving a probe trial.
# (§1) Aged animals were pre-loaded for 14 days at 10mg/kg/day (FAS LOW DOSE+PRIMING) or at 3 mg/kg/day (FAS LOW DOSE). After 14 days all animals were administered 3 mg/kg/day. Vehicle was normal saline (0.9%). The rats were subjected to the Radial Arm Maze and the Morris Water Maze described above.
# Fasudil was also delivered via daily sub-cutaneous injections to aged (18-months old) rats at doses of 3 mg/kg/day (n=8) or 30 mg/kg/day (n=8). Controls included both aged and young (4-months old) rats injected daily with vehicle (normal saline). The low dose for Fasudil was based upon the previous study showing efficacy with 0.750 mg/kg/day hydroxyfasudil and the high dose was based on that reported in the literature as a commonly used therapeutic dose.
# [1] = system: aged (18-months old) rats; test: water escape radial arm maze, more difficult version of the working memory trial (7 out of 8 arms platformed); format: in vivo, rat
# Protocol: (§2) This experiment included a decreased pre-loading phase, a more difficult version of the working memory trial (where 7 out of 8 arms were platformed), and an elongated version of the Morris maze (7 days plus a “probe” trial). Fasudil was delivered via daily sub-cutaneous injections to aged (18-months old) rats at doses of 3 mg/kg/day (n=8) or 10 mg/kg/day (n=8). Controls included both aged and young (4-months old) rats injected daily with vehicle (normal saline). The low dose for Fasudil was based upon the evidence in Example 3 showing efficacy and the high dose was based on that reported in the literature as a commonly used low therapeutic dose. There was a one day loading period for this experiment.
# [2] = system: aged (18-months old) rats; test: tolerability observation during daily sub-cutaneous dosing; format: in vivo, rat; details: 10 mg/kg/day s.c., after 7 days of drug delivery; animals switched to the low dose
# Protocol: as §2
# [3] = system: aged rats (18 months old); test: water escape radial arm maze test (4 of 8 arms platformed); format: in vivo, rat
# Protocol: Hydroxyfasudil was tested in vivo by administering to aged rats (18 months old) two doses of 0.75 mg/kg and 0.375 mg/kg, delivered subcutaneously each day for a period of 4-5 days before testing. During testing, hydroxyfasudil was administered in the morning of each testing day. Two control groups were used, with one group being untreated and the other group treated with the vehicle (saline). Both control groups include 9 members, with an age of 4 months.
# The rats were then tested using the water escape radial arm maze test. The radial arm maze is a swim-based test without the need for food deprivation. The maze consists of 8 radial arms, with 4 of the arms having a submerged platform. […] The rat was given 180 seconds to locate a platform. If the rat located a platform, the rat was allowed 15 seconds on the platform, and was then removed. When a rat found a platform, that platform was removed prior to beginning the next trial. Each rat was subjected to 4 trials per day, with 1 trial per platform and 30 seconds between trials. Each rat was tested over a period of 12 days, with the first day consisting of training, days 2-7 considered “initial,” and days 8-12 considered “latter.”
# Additional efficacy testing was performed using twenty-seven 18-month old male rats were utilized and divided randomly into three treatment groups: saline vehicle (“Aged Vehicle”), hydroxyfasudil in saline at a dose of 0.1875 mg per day (“Aged Low Dose”), and hydroxyfasudil at a dose of 0.3750 mg per day (“Aged High Dose”). Daily injections of the assigned substrate began four days prior to behavioral testing and continued throughout testing, with injections given approximately one hour before daily testing ensued. Animals were tested 4 trials per day for 12 consecutive days. Following the water radial arm maze, spatial reference memory was assessed using the Morris water maze. This testing consisted of 4 trials per day for 4 days with an additional probe trial on the final day.
# Using the protocol described above for hydroxyfasudil, rats were treated with from 1 mg/kg to 2 mg/kg of fenretinide. The rats were subjected to the Radial Arm Maze and the Morris Water Maze described above.
# as §1
# [4] = system: “memory molecule” transcripts in the hippocampus; test: expression profile of the entire hippocampus of hydroxyfasudil treated animals; format: in vivo; details: FIG. 6
# Excerpt: The tissue source is the entire hippocampus.
# After testing, the rats were terminated and the brain dissected.
# [5] = rats, 1 mg/kg to 2 mg/kg, FIG. 7
structure (smiles),measurement,setting,value
"O=S(=O)(c1cccc2cnccc12)N1CCCNCC1 [Fasudil, fasudil]",efficacy of the low dose (evidence in Example 3),aged rats; 3 mg/kg/day s.c.,efficacy
same,"reference memory performance (inches swam to locate the hidden platform), by day","aged rats; 14 days pre-loading at 10 or 3 mg/kg/day, then 3 mg/kg/day, collapsed across trials each day, FIG. 11A",improves reference memory performance
same,"reference memory performance (inches swam to locate the hidden platform), by trial","aged rats; 14 days pre-loading at 10 or 3 mg/kg/day, then 3 mg/kg/day, collapsed by trial for all four days, FIG. 11B",improves reference memory performance
same,memory performance,[1]; FIG. 12 legend,improves memory performance
same,working memory performance,"[1]; aged rats, 3 or 10 mg/kg/day s.c. (10 mg/kg/day switched to low dose after 7 days), especially trials 6 and 7, FIG. 12",significant improvement in working memory performance
same,trauma in dosed animals,[2],began to show similar trauma as in the previous study
CC1=C(/C=C/C(C)=C/C=C/C(C)=C/C(=O)Nc2ccc(O)cc2)C(C)(C)CCC1 [fenretinide],working memory,"[3]; 6 rats per group, FIG. 7 legend",improving working memory
same,"memory, greater doses versus smaller doses",[3]; [5],improved memory more than smaller doses
same,"number of incorrect errors made by the rats, versus the control",[3]; [5],lowered the number of incorrect errors
O=c1[nH]ccc2c(S(=O)(=O)N3CCCNCC3)cccc12 [hydroxyfasudil],memory (working memory),"[3]; 18-month old male rats, 0.1875 mg per day and 0.3750 mg per day, daily injections from four days before testing, FIG. 16",improved memory; also recorded: improves working memory
same,working memory,[3]; FIG. 5 legend,improves working memory
same,memory,"[3]; aged rats, 0.75 mg/kg and 0.375 mg/kg s.c. daily, FIGS. 3-5",improved memory
same,learning scores (orthogonal measures of working memory),"[3]; aged rats, 0.75 mg/kg and 0.375 mg/kg subcutaneously each day, FIGS. 3-4",improved learning scores
same,"improvements of learning, higher doses versus smaller doses","[3]; aged rats, 0.75 mg/kg vs 0.375 mg/kg s.c. daily, FIGS. 3-4",greater improvements of learning
same,"improvements of memory, higher doses versus smaller doses","[3]; aged rats, 0.75 mg/kg vs 0.375 mg/kg s.c. daily, FIGS. 3-5",greater improvements of memory
same,performance of aging rats compared with young rats,[3]; aging rats receiving the compound,perform at a level comparable to young rats
same,“memory molecule” transcripts in the hippocampus,[4],alteration of “memory molecule” transcripts
